# Measured values taken from patent US9492471B2, “Methods of treating a disease or disorder associated with Bruton'S Tyrosine Kinase” (Celgene Avilomics Research, Inc., priority 2013, dated 2016).
# Like-named read-outs stand apart in the source and are kept apart here.
# How the values were obtained:
# Test in all cases: HotSpot kinase profiling
# Format in all cases: biochemical
# EPHA6 = molecular target: T1, EPHA6 (Homo sapiens, UniProt Q9UF33)
# T1 construct: purchased Reaction Biology Corp
# T1 sequence (Q9UF33 23-1036): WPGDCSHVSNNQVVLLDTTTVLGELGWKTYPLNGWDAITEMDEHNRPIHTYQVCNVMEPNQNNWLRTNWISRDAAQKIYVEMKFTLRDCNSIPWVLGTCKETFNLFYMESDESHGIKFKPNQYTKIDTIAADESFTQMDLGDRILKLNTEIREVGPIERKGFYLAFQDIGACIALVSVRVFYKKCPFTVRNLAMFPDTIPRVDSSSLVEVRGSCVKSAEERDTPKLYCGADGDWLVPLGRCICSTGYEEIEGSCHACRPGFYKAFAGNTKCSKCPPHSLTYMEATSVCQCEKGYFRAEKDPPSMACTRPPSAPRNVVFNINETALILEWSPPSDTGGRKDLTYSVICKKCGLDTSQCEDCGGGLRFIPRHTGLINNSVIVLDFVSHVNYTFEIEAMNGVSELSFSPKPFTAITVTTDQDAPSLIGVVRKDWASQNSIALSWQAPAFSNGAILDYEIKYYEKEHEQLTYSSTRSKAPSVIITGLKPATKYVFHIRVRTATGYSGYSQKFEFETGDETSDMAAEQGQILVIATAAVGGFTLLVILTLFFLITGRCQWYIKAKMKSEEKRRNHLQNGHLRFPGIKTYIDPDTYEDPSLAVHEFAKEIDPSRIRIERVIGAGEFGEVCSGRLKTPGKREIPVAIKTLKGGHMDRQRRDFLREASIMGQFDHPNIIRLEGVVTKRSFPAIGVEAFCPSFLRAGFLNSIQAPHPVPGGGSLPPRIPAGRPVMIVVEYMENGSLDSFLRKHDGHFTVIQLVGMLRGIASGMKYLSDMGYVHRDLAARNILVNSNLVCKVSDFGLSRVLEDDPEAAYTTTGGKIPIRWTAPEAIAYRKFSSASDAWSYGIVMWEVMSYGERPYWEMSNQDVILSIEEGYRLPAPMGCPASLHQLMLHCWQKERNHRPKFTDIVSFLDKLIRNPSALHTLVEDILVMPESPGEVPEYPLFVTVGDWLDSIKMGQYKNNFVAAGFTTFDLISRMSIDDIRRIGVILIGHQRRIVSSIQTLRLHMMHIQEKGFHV
# How it was run: (§1)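 Activity is measured by radiolabel transfer captured on P81 filters after a 2 h room-temperature reaction of kinase, substrate and cofactors. Values are percent inhibition against DMSO.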
# STK32B/YANK2 = molecular target: T2, STK32B/YANK2 (Homo sapiens, UniProt Q9NY57)
# T2 construct: purchased Reaction Biology Corp
# T2 sequence (Q9NY57 whole entry): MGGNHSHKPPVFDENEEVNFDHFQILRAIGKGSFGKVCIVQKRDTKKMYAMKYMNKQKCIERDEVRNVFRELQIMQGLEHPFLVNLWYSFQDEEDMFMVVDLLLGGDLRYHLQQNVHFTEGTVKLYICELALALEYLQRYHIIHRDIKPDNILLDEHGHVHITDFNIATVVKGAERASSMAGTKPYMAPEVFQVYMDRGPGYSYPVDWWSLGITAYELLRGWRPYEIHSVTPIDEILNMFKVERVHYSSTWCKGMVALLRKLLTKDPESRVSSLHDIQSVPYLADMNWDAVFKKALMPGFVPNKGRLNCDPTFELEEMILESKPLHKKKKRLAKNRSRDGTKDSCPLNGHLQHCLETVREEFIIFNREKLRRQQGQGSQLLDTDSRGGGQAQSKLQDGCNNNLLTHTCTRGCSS
# How it was run: as §1
# ULK2 = molecular target: T3, ULK2 (Homo sapiens, UniProt Q8IYT8)
# T3 construct: purchased Reaction Biology Corp
# T3 sequence (Q8IYT8 1-1036): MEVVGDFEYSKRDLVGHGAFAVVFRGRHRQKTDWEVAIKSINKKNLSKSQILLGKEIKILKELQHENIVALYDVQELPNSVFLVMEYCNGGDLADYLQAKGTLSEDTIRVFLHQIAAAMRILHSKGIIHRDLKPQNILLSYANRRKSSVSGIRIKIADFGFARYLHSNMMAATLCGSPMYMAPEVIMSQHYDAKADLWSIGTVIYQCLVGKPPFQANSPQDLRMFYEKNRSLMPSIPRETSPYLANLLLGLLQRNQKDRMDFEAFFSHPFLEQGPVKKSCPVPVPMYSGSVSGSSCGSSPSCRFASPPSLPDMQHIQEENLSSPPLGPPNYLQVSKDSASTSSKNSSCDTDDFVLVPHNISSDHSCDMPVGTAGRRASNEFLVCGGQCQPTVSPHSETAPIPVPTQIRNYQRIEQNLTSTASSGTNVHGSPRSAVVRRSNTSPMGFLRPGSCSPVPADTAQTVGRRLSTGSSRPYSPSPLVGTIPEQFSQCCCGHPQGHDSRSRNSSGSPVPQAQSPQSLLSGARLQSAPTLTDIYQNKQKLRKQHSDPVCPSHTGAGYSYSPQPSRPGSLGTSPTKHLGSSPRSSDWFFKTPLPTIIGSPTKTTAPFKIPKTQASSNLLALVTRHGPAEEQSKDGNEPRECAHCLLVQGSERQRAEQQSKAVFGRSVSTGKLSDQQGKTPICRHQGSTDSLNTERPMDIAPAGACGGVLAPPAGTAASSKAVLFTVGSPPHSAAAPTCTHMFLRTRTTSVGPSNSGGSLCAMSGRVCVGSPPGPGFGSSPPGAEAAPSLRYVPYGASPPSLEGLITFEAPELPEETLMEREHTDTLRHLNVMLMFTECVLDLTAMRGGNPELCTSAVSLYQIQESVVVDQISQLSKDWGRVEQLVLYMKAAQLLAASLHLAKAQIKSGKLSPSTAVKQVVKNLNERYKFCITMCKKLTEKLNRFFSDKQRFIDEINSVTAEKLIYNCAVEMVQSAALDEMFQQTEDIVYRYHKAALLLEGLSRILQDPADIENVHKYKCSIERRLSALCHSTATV
# How it was run: as §1
# [1] = read-out: % Enzyme Activity (relative to DMSO controls) Run 1
# [2] = read-out: % Enzyme Activity (relative to DMSO controls) Run 2
structure (smiles),measurement,setting,value
C=CC(=O)Nc1cccc(Nc2nc(Nc3ccc(OCCOC)c(F)c3)ncc2F)c1 [Compound 2],inhibition at 3 µM,EPHA6,1.24%
same,remaining activity at 3 µM,EPHA6; [1],95.5%
same,remaining activity at 3 µM,EPHA6; [2],102%
same,inhibition at 3 µM,STK32B/YANK2,5.3%
same,remaining activity at 3 µM,STK32B/YANK2; [1],95.8%
same,remaining activity at 3 µM,STK32B/YANK2; [2],93.6%
same,inhibition at 3 µM,ULK2,-5.74%
same,remaining activity at 3 µM,ULK2; [1],102%
same,remaining activity at 3 µM,ULK2; [2],109%
